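Following 48 hours of exposure in 96-well plates, responses at five concentrations were used to interpolate endpoints linearly. TGI: concentration producing complete growth inhibition.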
Legend:
Test in all cases: inhibition of tumour cell growth, NCI panel, 48 h
786-0 renal = test system: 786-0 renal
A498 renal = test system: A498 renal
A549 NSCLC = test system: A549 NSCLC
ACHN renal = test system: ACHN renal
BT-549 breast = test system: BT-549 breast
CAKI-1 renal = test system: CAKI-1 renal
CCRF-CEM leukemia = test system: CCRF-CEM leukemia
COLO 205 colon = test system: COLO 205 colon
DU-145 prostate = test system: DU-145 prostate
EKVX NSCLC = test system: EKVX NSCLC
HCC-2998 colon = test system: HCC-2998 colon
HCT-116 colon = test system: HCT-116 colon
HCT-15 colon = test system: HCT-15 colon
HL-60(TB) leukemia = test system: HL-60(TB) leukemia
HOP-62 NSCLC = test system: HOP-62 NSCLC
HOP-92 NSCLC = test system: HOP-92 NSCLC
HS 578T breast = test system: HS 578T breast
HT29 colon = test system: HT29 colon
IGROV1 ovarian = test system: IGROV1 ovarian
K-562 leukemia = test system: K-562 leukemia
KM12 colon = test system: KM12 colon
LOX IMVI melanoma = test system: LOX IMVI melanoma
M14 melanoma = test system: M14 melanoma
MALME-3M melanoma = test system: MALME-3M melanoma
MCF7 breast = test system: MCF7 breast
MDA-MB-231 breast = test system: MDA-MB-231 breast
MDA-MB-435 = test system: MDA-MB-435
MDA-N = test system: MDA-N
MOLT-4 leukemia = test system: MOLT-4 leukemia
NCI-H226 lung = test system: NCI-H226 lung
NCI-H23 lung = test system: NCI-H23 lung
NCI-H460 lung = test system: NCI-H460 lung
NCI-H522 lung = test system: NCI-H522 lung
NCI/ADR-RES ovarian = test system: NCI/ADR-RES ovarian
OVCAR-3 ovarian = test system: OVCAR-3 ovarian
OVCAR-4 ovarian = test system: OVCAR-4 ovarian
OVCAR-5 ovarian = test system: OVCAR-5 ovarian
OVCAR-8 ovarian = test system: OVCAR-8 ovarian
PC-3 prostate = test system: PC-3 prostate
RPMI-8226 leukemia = test system: RPMI-8226 leukemia
RXF 393 renal = test system: RXF 393 renal
SF-268 CNS = test system: SF-268 CNS
SF-295 CNS = test system: SF-295 CNS
SF-539 CNS = test system: SF-539 CNS
SK-MEL-2 melanoma = test system: SK-MEL-2 melanoma
SK-MEL-28 melanoma = test system: SK-MEL-28 melanoma
SK-MEL-5 melanoma = test system: SK-MEL-5 melanoma
SK-OV-3 ovarian = test system: SK-OV-3 ovarian
SN12C renal = test system: SN12C renal
SNB-19 CNS = test system: SNB-19 CNS
SNB-75 CNS = test system: SNB-75 CNS
SR leukemia = test system: SR leukemia
SW-620 colon = test system: SW-620 colon
T-47D breast = test system: T-47D breast
TK-10 renal = test system: TK-10 renal
U251 CNS = test system: U251 CNS
UACC-257 melanoma = test system: UACC-257 melanoma
UACC-62 melanoma = test system: UACC-62 melanoma
UO-31 renal = test system: UO-31 renal
DLD-1 colon = test system: DLD-1 colon
DMS 273 small cell lung = test system: DMS 273 small cell lung
KM20L2 colon = test system: KM20L2 colon
LXFL 529 NSCLC = test system: LXFL 529 NSCLC
SNB-78 CNS = test system: SNB-78 CNS
XF 498 CNS = test system: XF 498 CNS

How did the TGI (786-0 renal) turn out when `C=CCC1(O)c2ccccc2C(=O)c2c(O)ccc(O)c21` (centres undefined) was run?
Its TGI is 31.8 µM.

And the TGI (A498 renal)?
Its TGI is 25.8 µM.

And the TGI (A549 NSCLC)?
Its TGI is greater than 87.3 µM.

What about the TGI (ACHN renal) of the same compound?
The TGI was 46.3 µM.

And the TGI (BT-549 breast)?
The TGI was 36.3 µM.

And the TGI (CAKI-1 renal)?
The TGI was 50.7 µM.

What about the TGI (CCRF-CEM leukemia) of the same compound?
Its TGI is 56.7 µM.

What about the TGI (COLO 205 colon) of the same compound?
The TGI was 26.9 µM.

What about the TGI (DU-145 prostate) of the same compound?
Its TGI is 38 µM.

And the TGI (EKVX NSCLC)?
The TGI was 57 µM.

And the TGI (HCC-2998 colon)?
Its TGI is 15 µM.

What about the TGI (HCT-116 colon) of the same compound?
The TGI was 27.3 µM.

What about the TGI (HCT-15 colon) of the same compound?
The TGI was greater than 75.7 µM.

What about the TGI (HL-60(TB) leukemia) of the same compound?
The TGI was 13 µM.

What about the TGI (HOP-62 NSCLC) of the same compound?
Its TGI is greater than 86.8 µM.

What about the TGI (HOP-92 NSCLC) of the same compound?
Its TGI is 41.1 µM.

And the TGI (HS 578T breast)?
Its TGI is 21.9 µM.

And the TGI (HT29 colon)?
Its TGI is greater than 62.4 µM.

What about the TGI (IGROV1 ovarian) of the same compound?
The TGI was greater than 100 µM.

And the TGI (K-562 leukemia)?
Its TGI is greater than 100 µM.

What about the TGI (KM12 colon) of the same compound?
The TGI was 30.1 µM.

And the TGI (LOX IMVI melanoma)?
The TGI was greater than 50.9 µM.

What about the TGI (M14 melanoma) of the same compound?
Its TGI is 27.5 µM.

What about the TGI (MALME-3M melanoma) of the same compound?
The TGI was 28.8 µM.

And the TGI (MCF7 breast)?
Its TGI is 26.3 µM.

What about the TGI (MDA-MB-231 breast) of the same compound?
The TGI was 26 µM.

What about the TGI (MDA-MB-435) of the same compound?
Its TGI is 6.43 µM.

What about the TGI (MDA-N) of the same compound?
The TGI was 5.15 µM.

What about the TGI (MOLT-4 leukemia) of the same compound?
Its TGI is greater than 58 µM.

What about the TGI (NCI-H226 lung) of the same compound?
Its TGI is greater than 43 µM.

And the TGI (NCI-H23 lung)?
Its TGI is 56 µM.

And the TGI (NCI-H460 lung)?
The TGI was 18.3 µM.

And the TGI (NCI-H522 lung)?
The TGI was 8.11 µM.

What about the TGI (NCI/ADR-RES ovarian) of the same compound?
Its TGI is 12.1 µM.

What about the TGI (OVCAR-3 ovarian) of the same compound?
The TGI was greater than 57.6 µM.

And the TGI (OVCAR-4 ovarian)?
Its TGI is greater than 82.5 µM.

And the TGI (OVCAR-5 ovarian)?
Its TGI is 60.4 µM.

What about the TGI (OVCAR-8 ovarian) of the same compound?
The TGI was 53.7 µM.

What about the TGI (PC-3 prostate) of the same compound?
Its TGI is 35.5 µM.

And the TGI (RPMI-8226 leukemia)?
The TGI was greater than 100 µM.

What about the TGI (RXF 393 renal) of the same compound?
The TGI was 21.4 µM.

What about the TGI (SF-268 CNS) of the same compound?
Its TGI is 56.9 µM.

And the TGI (SF-295 CNS)?
The TGI was greater than 51.9 µM.

And the TGI (SF-539 CNS)?
Its TGI is greater than 33.7 µM.

What about the TGI (SK-MEL-2 melanoma) of the same compound?
The TGI was 9.98 µM.

And the TGI (SK-MEL-28 melanoma)?
Its TGI is greater than 100 µM.

What about the TGI (SK-MEL-5 melanoma) of the same compound?
The TGI was 23.1 µM.

What about the TGI (SK-OV-3 ovarian) of the same compound?
The TGI was 40.7 µM.

And the TGI (SN12C renal)?
Its TGI is 56.4 µM.

What about the TGI (SNB-19 CNS) of the same compound?
The TGI was 68.6 µM.

And the TGI (SNB-75 CNS)?
The TGI was 25.3 µM.

And the TGI (SR leukemia)?
Its TGI is greater than 69.8 µM.

And the TGI (SW-620 colon)?
Its TGI is greater than 100 µM.

What about the TGI (T-47D breast) of the same compound?
Its TGI is greater than 59.2 µM.

What about the TGI (TK-10 renal) of the same compound?
Its TGI is 47.1 µM.

What about the TGI (U251 CNS) of the same compound?
The TGI was 24.3 µM.

What about the TGI (UACC-257 melanoma) of the same compound?
Its TGI is 19 µM.

And the TGI (UACC-62 melanoma)?
Its TGI is 20.3 µM.

What about the TGI (UO-31 renal) of the same compound?
The TGI was 52.6 µM.

With `CCC1(C)NN=c2s/c(=C/c3ccc(OC)cc3)c(=O)n2N1` (centres undefined) as the compound, how does the TGI (786-0 renal) read?
Its TGI is greater than 100 µM.

And the TGI (A549 NSCLC)?
The TGI was greater than 100 µM.

What about the TGI (ACHN renal) of the same compound?
Its TGI is greater than 100 µM.

What about the TGI (CAKI-1 renal) of the same compound?
The TGI was greater than 100 µM.

What about the TGI (CCRF-CEM leukemia) of the same compound?
The TGI was greater than 100 µM.

And the TGI (COLO 205 colon)?
Its TGI is greater than 100 µM.

What about the TGI (DLD-1 colon) of the same compound?
Its TGI is greater than 100 µM.

And the TGI (DMS 273 small cell lung)?
The TGI was greater than 100 µM.

And the TGI (EKVX NSCLC)?
Its TGI is greater than 100 µM.

And the TGI (HCC-2998 colon)?
Its TGI is greater than 100 µM.

What about the TGI (HCT-116 colon) of the same compound?
Its TGI is greater than 100 µM.

What about the TGI (HOP-62 NSCLC) of the same compound?
The TGI was greater than 100 µM.

And the TGI (HOP-92 NSCLC)?
The TGI was 96.3 µM.

What about the TGI (HT29 colon) of the same compound?
Its TGI is greater than 100 µM.

What about the TGI (IGROV1 ovarian) of the same compound?
The TGI was greater than 100 µM.

What about the TGI (K-562 leukemia) of the same compound?
The TGI was greater than 100 µM.

And the TGI (KM12 colon)?
Its TGI is greater than 100 µM.

What about the TGI (KM20L2 colon) of the same compound?
The TGI was greater than 100 µM.

What about the TGI (LOX IMVI melanoma) of the same compound?
The TGI was greater than 100 µM.

What about the TGI (LXFL 529 NSCLC) of the same compound?
The TGI was greater than 100 µM.

And the TGI (M14 melanoma)?
Its TGI is greater than 100 µM.

And the TGI (MALME-3M melanoma)?
Its TGI is greater than 100 µM.

And the TGI (MOLT-4 leukemia)?
Its TGI is greater than 100 µM.

What about the TGI (NCI-H226 lung) of the same compound?
Its TGI is greater than 100 µM.

What about the TGI (NCI-H23 lung) of the same compound?
The TGI was greater than 100 µM.

What about the TGI (NCI-H460 lung) of the same compound?
The TGI was greater than 100 µM.

And the TGI (NCI-H522 lung)?
Its TGI is greater than 100 µM.

And the TGI (OVCAR-3 ovarian)?
The TGI was greater than 100 µM.

What about the TGI (OVCAR-4 ovarian) of the same compound?
The TGI was greater than 100 µM.

What about the TGI (OVCAR-5 ovarian) of the same compound?
Its TGI is greater than 100 µM.

What about the TGI (OVCAR-8 ovarian) of the same compound?
The TGI was greater than 100 µM.

And the TGI (RXF 393 renal)?
Its TGI is greater than 100 µM.

And the TGI (SF-268 CNS)?
Its TGI is greater than 100 µM.

And the TGI (SF-295 CNS)?
Its TGI is greater than 100 µM.

What about the TGI (SF-539 CNS) of the same compound?
Its TGI is greater than 100 µM.

What about the TGI (SK-MEL-2 melanoma) of the same compound?
Its TGI is greater than 100 µM.

What about the TGI (SK-MEL-28 melanoma) of the same compound?
The TGI was greater than 100 µM.

What about the TGI (SK-MEL-5 melanoma) of the same compound?
Its TGI is greater than 100 µM.

What about the TGI (SK-OV-3 ovarian) of the same compound?
Its TGI is greater than 100 µM.

And the TGI (SN12C renal)?
Its TGI is greater than 100 µM.

And the TGI (SNB-19 CNS)?
Its TGI is greater than 100 µM.

What about the TGI (SNB-75 CNS) of the same compound?
Its TGI is greater than 100 µM.

And the TGI (SNB-78 CNS)?
Its TGI is greater than 100 µM.

What about the TGI (SR leukemia) of the same compound?
The TGI was greater than 100 µM.

What about the TGI (SW-620 colon) of the same compound?
Its TGI is greater than 100 µM.

And the TGI (TK-10 renal)?
Its TGI is greater than 100 µM.

And the TGI (U251 CNS)?
Its TGI is greater than 100 µM.

And the TGI (UACC-62 melanoma)?
The TGI was greater than 100 µM.

What about the TGI (UO-31 renal) of the same compound?
Its TGI is greater than 100 µM.

And the TGI (XF 498 CNS)?
The TGI was greater than 100 µM.
